Results: patent US20040081675A1, “Cosmetic formulations containing flavonoid derivatives” (priority 2001, published 2004)

Tests used:
[1] = assay type: physicochemical
Description: The invention furthermore relates to the stabilisation of UV filters. A known and effective class of light-protection filter substances is formed by the dibenzoylmethane derivatives. However, it is disadvantageous that these substances are decomposed very easily by UV light and their protective properties are thus lost. An example of a commercially available light-protection filter from this class of compounds which may be mentioned is 4-(tert-butyl)-4′-methoxydibenzoylmethane, which has the structure shown below. [drawing 22]
Tiliroside can be used for stabilisation here as the pure substance or in the form of a plant extract. In a preferred embodiment, tiliroside is used in the form of a plant extract, a purified plant extract or in the form of the pure substance prepared from the plant extract.

[2] = UV absorption properties (absorption maximum, shoulder, absorption coefficient); assay type: physicochemical
Description: Tiliroside absorbs in the UV-B region, i.e. in the wavelength range between 290 and 320 nm, with an absorption maximum at λmax=316 nm, and additionally in the UV-A region, i.e. in the wavelength range between 320 and 400 nm, with an absorption shoulder at λsh=349 nm. The absorption coefficient ε at λmax=316 nm is ε=23260 and at λsh=349 nm is ε=13500.
The absorption coefficient at this wavelength is 23420.

[3] = Inherent colour of the substance; assay type: physicochemical
Description: The weak inherent colour is, for example, a major advantage if an inherent colour of the ingredients is undesired in the products for aesthetic reasons.

## O=C(C=Cc1ccc(O)cc1)OC[C@H]1O[C@@H](Oc2c(-c3ccc(O)cc3)oc3cc(O)cc(O)c3c2=O)[C@H](O)[C@@H](O)[C@@H]1O [Tiliroside, kaempferol 3-(6″-p-coumarylglucoside)]
[1]
  stabilising action for dibenzoylmethanes: particularly high stabilising action
[2]; UV-A region (320 to 400 nm)
  absorption shoulder λsh: 349 nm
[2]; UV-A region, tiliroside compared with Eusolex 6300
  absorption in the UV-A region (in words): significantly better absorption properties in the UVA region
[2]; UV-B region
  absorption maximum λmax: 316 nm
[2]; at the absorption maximum in the UV-B region (tiliroside 316 nm, Eusolex 6300 300 nm)
  absorption coefficient ε at λmax: 23260
[2]; at the shoulder λsh=349 nm, UV-A region
  absorption coefficient ε at λsh: 13500
[3]
  inherent colour: only a weak inherent colour
